Each compound was assayed against T1, IDO1 (Homo sapiens, UniProt P14902) (assay: Cell-based (HeLa) assay for measurement of IDO1 inhibition (kynurenine levels in supernatant after IFNγ induction)). Settings: HeLa cells, IFNγ-induced IDO1, kynurenine in supernatant after 48 hour incubation; geometric mean of a minimum of four determinations.
T1 construct: HeLa cells were treated with a test compound in the presence of IFNγ, which induces IDO1 expression; host or cells: H1-HeLa cells, IDO1 induced with IFNγ
Description: Example 509. Cell-Based (HeLa) Assay for Measurement of IDOL Inhibition
To measure IDO1 inhibition in tissue culture, HeLa cells were treated with a test compound in the presence of IFNγ, which induces IDO1 expression. Following incubation, cell supernatants were assayed for kynurenine levels, an indicator of IDO1 activity.
H1-HeLa cells (ATCC #CRL-1958) were seeded in 384-well plates (Greiner #82051-282) at a volume of 50 μL/well in DMEM (Corning #15-018-CM) supplemented with 10% FBS (Corning #35-011-CV) and 1% P/S/G (Corning #30-009-CL) at a density of 1,250 cells/well and incubated overnight at 37° C., 5% CO2/100% humidity. The following day, the test compounds were added in DMSO (0.5% final) at various concentrations, and IDO1 was inducibly expressed by the addition of 50 uL/well of […] of INFγ (Peprotech #300-02) in cell plating media. As a […] control, 50 uL of the cell plating media without IFNγ was added to several wells. Following a 48 hour incubation, the plates were spun down at 1,200 RPM for 5 min at 10° C. 65 μL/well of the supernatant was then transferred to new 384-well plates (Thermo #262160) that contained 10 uL/well of 30% TCA (Sigma #TO699), and the plates were sealed and incubated at 60° C. for 30 min. The plates were then centrifuged for 15 min at 2,000 RPM at 10° C. 40 μL/well of the supernatant was transferred to new 384-well plates (Thermo #262160) and was reacted with 40 μL/well of 2% (w/v) p-dimethlyaminobenzaldehyde (Sigma #156417) in glacial acetic acid (Sigma #A6283). The reaction was incubated at room temperature for 10 min and absorbance at 480 nm was read using a PerkinElmer Envision plate reader.
Data in Table 1 were normalized based on positive (−IFNγ) and negative (+IFNγ) controls and EC50 values were calculated from the fit of the dose response curves to a four-parameter equation. All EC50 values represent geometric mean values of a minimum of four determinations. These assays generally produced results within 2-fold of the reported mean.

T1 sequence (P14902 whole entry): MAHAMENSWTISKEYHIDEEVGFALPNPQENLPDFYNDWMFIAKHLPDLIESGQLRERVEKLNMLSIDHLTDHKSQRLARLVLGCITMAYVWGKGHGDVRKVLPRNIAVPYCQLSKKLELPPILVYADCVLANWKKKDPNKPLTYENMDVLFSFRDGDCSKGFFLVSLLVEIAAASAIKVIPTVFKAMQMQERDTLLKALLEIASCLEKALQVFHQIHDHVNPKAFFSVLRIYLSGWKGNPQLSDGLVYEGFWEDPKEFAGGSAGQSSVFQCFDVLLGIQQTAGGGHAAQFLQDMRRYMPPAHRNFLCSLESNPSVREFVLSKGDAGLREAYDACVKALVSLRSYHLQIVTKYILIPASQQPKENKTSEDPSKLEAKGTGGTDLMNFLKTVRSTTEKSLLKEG

Point of comparison: `NCc1nc2nccc(/C(=N/O)Nc3ccc(F)c(Cl)c3)c2[nH]1` [Example 179, 2-(Aminomethyl)-N-(3-chloro-4-fluorophenyl)-N′-hydroxy-1H-imidazo[4,5-b]pyridine-7-carboximidamide], EC50 7.66 µM. Against it:
- O/N=C(\Nc1ccc(F)c(Cl)c1)c1ccnc2nc(CNCC3CCOC3)[nH]c12 (stereo not drawn) [Example 135, N-(3-Chloro-4-fluorophenyl)-N′-hydroxy-2-((((tetrahydrofuran-3-yl)methyl)amino)methyl)-1H-imidazo[4,5-b]pyridine-7-carboximidamide] — within 1.5-fold, 5.11 µM
- CN(C)c1nc2nccc(/C(=N/O)Nc3ccc(F)c(Cl)c3)c2[nH]1 [Example 169, N-(3-Chloro-4-fluorophenyl)-2-(dimethylamino)-N′-hydroxy-1H-imidazo[4,5-b]pyridine-7-carboximidamide] — within 1.5-fold, 6.27 µM
- O/N=C(\Nc1ccc(F)c(Cl)c1)c1ccnc2nc(NCC3CC3)[nH]c12 [Example 161, N-(3-Chloro-4-fluorophenyl)-2-((cyclopropylmethyl)amino)-N′-hydroxy-1H-imidazo[4,5-b]pyridine-7-carboximidamide] — 12-fold lower, 0.655 µM
- O/N=C(\Nc1ccc(F)c(Cl)c1)c1ccnc2nc(C(O)c3ccccc3)[nH]c12 (stereo not drawn) [Example 173, N-(3-Chloro-4-fluorophenyl)-N′-hydroxy-2-(hydroxy(phenyl)methyl)-1H-imidazo[4,5-b]pyridine-7-carboximidamide] — within 1.5-fold, 9.7 µM
- O/N=C(\Nc1ccc2occc2c1)c1ccnc2nc[nH]c12 [Example 70, N-(benzofuran-5-yl)-N′-hydroxy-1H-imidazo[4,5-b]pyridine-7-carboximidamide] — 5.2-fold lower, 1.48 µM
- O/N=C(\Nc1ccc(F)c(Cl)c1)c1ccnc2nc(NC3COC3)[nH]c12 [Example 226, N-(3-chloro-4-fluorophenyl)-N′-hydroxy-2-(oxetan-3-ylamino)-1H-imidazo[4,5-b]pyridine-7-carboximidamide] — higher, > 10 µM
- O/N=C(\Nc1ccc(Cl)c(Cl)c1)c1ccnc2nc[nH]c12 [Example 86, N-(3,4-Dichlorophenyl)-N′-hydroxy-1H-imidazo[4,5-b]pyridine-7-carboximidamide] — 12-fold lower, 0.639 µM
- O/N=C(\Nc1cc(Cl)c(F)c(Cl)c1)c1ccnc2nc[nH]c12 [Example 63, N-(3,5-Dichloro-4-fluorophenyl)-N′-hydroxy-1H-imidazo[4,5-b]pyridine-7-carboximidamide] — 9.9-fold lower, 0.774 µM
- CNCc1nc2c(/C(=N/O)Nc3ccc(F)c(Cl)c3)cc(F)c(F)c2[nH]1 [Example 48, N-(3-Chloro-4-fluorophenyl)-4,5-difluoro-N′-hydroxy-2-((methylamino)methyl)-1H-benzo[d]imidazole-7-carboximidamide] — 18-fold lower, 0.434 µM
- Nc1nc2c(F)c(F)cc(/C(=N/O)Nc3ccc(F)c(Br)c3)c2[nH]1 [Example 14, 2-Amino-N-(3-bromo-4-fluorophenyl)-4,5-difluoro-N′-hydroxy-1H-benzo[d]imidazole-7-carboximidamide] — 16-fold lower, 0.494 µM
- O/N=C(\Nc1cc(Cl)ccc1Cl)c1ccnc2nc[nH]c12 [Example 76, N-(2,5-Dichlorophenyl)-N′-hydroxy-1H-imidazo[4,5-b]pyridine-7-carboximidamide] — 10-fold lower, 0.769 µM
- CN(C)CCNc1nc2nccc(C(=NO)Nc3ccc(F)c(Cl)c3)c2[nH]1 [Example 215, N-(3-chloro-4-fluorophenyl)-2-((2-(dimethylamino)ethyl)amino)-N′-hydroxy-1H-imidazo[4,5-b]pyridine-7-carboximidamide] — 6.4-fold lower, 1.2 µM
- CS(=O)(=O)NCCc1nc2c(F)c(F)cc(/C(=N/O)Nc3ccc(F)c(Cl)c3)c2[nH]1 [Example 210, N-(3-chloro-4-fluorophenyl)-4,5-difluoro-N′-hydroxy-2-(2-(methylsulfonamido)ethyl)-1H-benzo[d]imidazole-7-carboximidamide] — higher, > 10 µM
- O/N=C(\Nc1ccc(F)c(Br)c1)c1ccnc2nc(NCCN3CCOCC3)[nH]c12 [Example 238, N-(3-bromo-4-fluorophenyl)-N′-hydroxy-2-((2-morpholinoethyl)amino)-1H-imidazo[4,5-b]pyridine-7-carboximidamide] — 9-fold lower, 0.853 µM
- CN(C)Cc1nc2nccc(/C(=N/O)Nc3ccc(F)c(Cl)c3)c2[nH]1 [Example 113, N-(3-Chloro-4-fluorophenyl)-2-((dimethylamino)methyl)-N′-hydroxy-1H-imidazo[4,5-b]pyridine-7-carboximidamide] — 4.2-fold lower, 1.84 µM
- O/N=C(\Nc1cccc2occc12)c1ccnc2nc[nH]c12 [Example 67, N-(Benzofuran-4-yl)-N′-hydroxy-1H-imidazo[4,5-b]pyridine-7-carboximidamide] — 13-fold lower, 0.583 µM
- O/N=C(\Nc1ccc(F)c(Cl)c1)c1ccnc2nc(CCN3CCC(Cc4ccccc4)CC3)[nH]c12 [Example 275, 2-(2-(4-benzylpiperidin-1-yl)ethyl)-N-(3-chloro-4-fluorophenyl),N′-hydroxy-1H-imidazo[4,5-b]pyridine-7-carboximidamide] — 11-fold lower, 0.675 µM
- O/N=C(\Nc1cccc(Cl)c1)c1ccnc2nc(CCN3CCCC3)[nH]c12 [Example 268, N-(3-chlorophenyl)-N′-hydroxy-2-(2-(pyrrolidin-1-yl)ethyl)-1H-imidazo[4,5-b]pyridine-7-carboximidamide] — 8-fold lower, 0.952 µM
- CN(C)Cc1nc2c(F)ccc(/C(=N/O)Nc3ccc(F)c(Cl)c3)c2[nH]1 [Example 288, N-(3-chloro-4-fluorophenyl)-2-((dimethylamino)methyl)-4-fluoro-N′-hydroxy-1H-benzo[d]imidazole-7-carboximidamide] — 4.2-fold lower, 1.82 µM

Same assay, conditions: HeLa cells, IFNγ-induced IDO1, kynurenine in supernatant, 48 hour incubation; geometric mean of a minimum of four determinations

Point of comparison: `CN(C)CCNc1nc2c(F)c(F)cc(/C(=N/O)Nc3cccc(Cl)c3)c2[nH]1` [Example 431, N-(3-chlorophenyl)-2-((2-(dimethylamino)ethyl)amino)-4,5-difluoro-N′-hydroxy-1H-benzo[d]imidazole-7-carboximidamide], EC50 0.139 µM. Against it:
- CC(CCNc1nc2c(F)c(F)cc(/C(=N/O)Nc3ccc(F)c(Cl)c3)c2[nH]1)N(C)C (stereo not drawn) [Example 353, N-(3-chloro-4-fluorophenyl)-2-((3-(dimethylamino)butyl)amino)-4,5-difluoro-N′-hydroxy-1H-benzo[d]imidazole-7-carboximidamide] — 9.3-fold higher, 1.29 µM
- COC(=O)NCCNc1nc2c(F)c(F)cc(/C(=N/O)Nc3ccc(F)c(Cl)c3)c2[nH]1 [Example 337, Methyl (2-((7-(N-(3-chloro-4-fluorophenyl)-N′-hydroxycarbamimidoyl)-4,5-difluoro-1H-benzo[d]imidazol-2-yl)amino)ethyl)carbamate] — 32-fold higher, 4.41 µM
- CN(C)CCCNc1nc2c(F)c(F)cc(/C(=N/O)Nc3cccc(Br)c3)c2[nH]1 [Example 386, N-(3-bromophenyl)-2-((3-(dimethylamino)propyl)amino)-4,5-difluoro-N′-hydroxy-1H-benzo[d]imidazole-7-carboximidamide] — 4-fold higher, 0.559 µM
- CN(CCc1nc2nccc(/C(=N/O)Nc3ccc(F)c(Cl)c3)c2[nH]1)CC1CCOCC1 [Example 399, N-(3-chloro-4-fluorophenyl)-N′-hydroxy-2-(2-(methyl((tetrahydro-2H-pyran-4-yl)methyl)amino)ethyl)-1H-imidazo[4,5-b]pyridine-7-carboximidamide] — 9.6-fold higher, 1.33 µM
- CN(C)CCCNc1nc2c(F)c(F)cc(/C(=N/O)Nc3cccc(Cl)c3)c2[nH]1 [Example 385, N-(3-chlorophenyl)-2-((3-(dimethylamino)propyl)amino)-4,5-difluoro-N′-hydroxy-1H-benzo[d]imidazole-7-carboximidamide] — 4.2-fold higher, 0.58 µM
- NCCNc1nc2c(F)c(F)cc(/C(=N/O)Nc3ccc(F)c(Cl)c3)c2[nH]1 [Example 333, 2-((2-aminoethyl)amino)-N-(3-chloro-4-fluorophenyl)-4,5-difluoro-N′-hydroxy-1H-benzo[d]imidazole-7-carboximidamide] — 10-fold higher, 1.39 µM
- O/N=C(\Nc1ccc(F)c(Cl)c1)c1cc(F)c(F)c2nc(NCc3ccccn3)[nH]c12 [Example 342, N-(3-chloro-4-fluorophenyl)-4,5-difluoro-N′-hydroxy-2-((pyridin-2-ylmethyl)amino)-1H-benzo[d]imidazole-7-carboximidamide] — 61-fold higher, 8.49 µM
- CN(C(=NO)c1ccnc2nc[nH]c12)c1ccc(F)c(Cl)c1 [Example 369, N-(3-chloro-4-fluorophenyl)-N′-hydroxy-N-methyl-1H-imidazo[4,5-b]pyridine-7-carboximidamide] — higher, > 10 µM
- CN1CCC[C@H](Nc2nc3c(F)c(F)cc(/C(=N/O)Nc4cccc(Cl)c4)c3[nH]2)C1 [Example 459, (S)—N-(3-chlorophenyl)-4,5-difluoro-N′-hydroxy-2-((1-methylpiperidin-3-yl)amino)-1H-benzo[d]imidazole-7-carboximidamide] — 2.4-fold higher, 0.337 µM

— patent US9951065B2 (Gilead Sciences, Inc., priority 2015, dated 2018)
